The record followed here is ChEMBL document CHEMBL1201862, “PubChem BioAssay data set” (2004).

What all share (assay): NCI tumour cell line growth inhibition, 48 h
Test [1] deals with NCI/ADR-RES.
Test [2] has as its system DU-145.
Test [3] relates to IGROV-1.
Test [4] deals with HL-60.
The subject of test [5] is HCC 2998.
The test system of test [6] is SR.
In test [7] the test system is SN12C.
In test [8] the test system is U-251.
In test [9] the test system is SF-268.
For test [10], the system named is SF-295.
The subject of test [11] is ACHN.
For test [12], the system named is HOP-62.
The subject of test [13] is SK-MEL-5.
Test [14] has as its system MOLT-4.
The test system of test [15] is UACC-257.
The subject of test [16] is NCI-H460.
The test system of test [17] is HCT-116.
Test [18] concerns SK-MEL-28.
Test [19] deals with NCI-H226.
In test [20] the test system is SK-MEL-2.

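Each compound was tested at five concentrations against cells in 96-well plates for 48 hours. Here, GI50 denotes the concentration required for 50% inhibition of growth.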 The source made the active and inactive calls. Cut-off read from the data, not from the text of the source: active = GI50 up to about 1.1 µM and inactive = higher.

As for `O=c1oc2ccccc2c2c1Sc1ccccc1N2`, the GI50 was > 100000 nM (inactive) in test [1]; > 100000 nM (inactive) in test [2]; > 100000 nM (inactive) in [3]; > 100000 nM (inactive) in test [4]; 53000 nM (inactive) in [5]; 53600 nM (inactive) in test [6]. Moreover, the GI50 was > 100000 nM (inactive) in test [7]; 58300 nM (inactive) in test [8]; 56600 nM (inactive) in test [9]; > 100000 nM (inactive) in test [10]; > 100000 nM (inactive) in test [11]; > 100000 nM (inactive) in [12]. The GI50 is 48900 nM (inactive) in [13]; 63400 nM (inactive) in test [14]; > 100000 nM (inactive) in test [15]; 92900 nM (inactive) in test [16]; 89300 nM (inactive) in test [17]; > 100000 nM (inactive) in [18]. Also, the GI50 in test [19] is 82400 nM (inactive); in [20] it was 2580 nM (inactive).
As for `COc1ccc(C[C@H]2NC[C@H](O)[C@H]2OC(C)=O)cc1` [ANISOMYCIN], the GI50 in test [1] was 28.2 nM (active); in test [2], 22.3 nM (active); in test [3] it was 23.4 nM (active); in [4] it was 10.4 nM (active); in test [5], 22.9 nM (active); in test [6], < 14.3 nM (active). Also, the GI50 in [7] is 16.6 nM (active); in test [8], 30.9 nM (active); in [9], 36.1 nM (active); in test [10], < 18.4 nM (active); in test [11] it was < 14.4 nM (active); in [12], < 21 nM (active). For the same molecule, the GI50 in [13] is 13.3 nM (active); in test [14] it was < 13 nM (active); in test [15], 35.9 nM (active); in test [16], 16.9 nM (active); in test [17], < 15 nM (active); in test [18] it was 23.9 nM (active). The GI50 in test [19] was 23.4 nM (active); in [20], 28.7 nM (active).
With `COc1c(C)c2c(c(O)c1C/C=C(\C)CCC(=O)O)C(=O)OC2` [MYCOPHENOLIC ACID], the GI50 in test [1] was 2970 nM (inactive); in [2] it was > 100000 nM (inactive); in test [3], 1180 nM (inactive); in test [4], 1430 nM (inactive); in test [5], 3940 nM (inactive); in test [6], 446 nM (active). Moreover, the GI50 was 4100 nM (inactive) in test [7]; 342 nM (active) in test [8]; 1370 nM (inactive) in test [9]; 632 nM (active) in test [10]; 1750 nM (inactive) in [11]; 6440 nM (inactive) in test [12]. The GI50 in test [13] was 1020 nM (active); in test [14], 326 nM (active); in [15], 4510 nM (inactive); in test [16], 488 nM (active); in [17], 465 nM (active); in [18] it was 1910 nM (inactive). Also, the GI50 in [19] was > 46900 nM (inactive); in test [20], > 51400 nM (inactive).
On to `CC(=O)O[C@@H]1CO[C@H]2O[C@H]3[C@@H](C(C=O)=C[C@H](O)[C@@H]4C5=C(C(C)C)CC[C@]5(C)CC[C@@]34C)[C@@]2(O)C1=O` [STRIATIN E], for which the GI50 in [1] was 189 nM (active); in [2], 716 nM (active); in test [3] it was 219 nM (active); in test [4] it was 17.5 nM (active); in test [5], 519 nM (active); in test [6], 146 nM (active). The GI50 in test [7] was 156 nM (active); in test [8], 175 nM (active); in test [9], 240 nM (active); in test [10] it was 586 nM (active); in [11] it was 114 nM (active); in test [12], 575 nM (active). The GI50 is 267 nM (active) in test [13]; 90.6 nM (active) in test [14]; 219 nM (active) in test [15]; 255 nM (active) in [16]; 76 nM (active) in [17]; 234 nM (active) in test [18]. In addition, the GI50 in [19] was 378 nM (active); in test [20], 230 nM (active).
